Here are results for 2 compounds from patent publication US9763900B2, “Chemical chaperonins as novel molecular modulators of beta protein aggregation present in conformational diseases” (Centro de Neurociencias de Cuba (NEURONIC), priority 2013, dated 2017).

Each structure is given as a SMILES string.

The test system of series [1] is rat Cerebellar Granular Cells (CGC). The series can be described thus: Cell viability (MTT) of CGC exposed to IAPP 20-29 monomer or aggregated. The series is classed as cell-based. The method, then: The solutions fragment of IAPP 20-29 (MM 1029 Da) are prepared in PBS buffer (100 mM, pH 7.4; NaCl 100 mM). Monomeric peptide concentration was 5.8 mM and the aggregation peptide was 32.6 μM in DMSO. Protein concentration is calculated using the calibration curve.
Chaperonin: solutions of chaperonin B and D (25 μM), selected as non-limiting examples of Formula I, are prepared in 1.2 mL of DMSO and dilute with the buffer to obtain a final volume of […]. Curcumin (5.5 mM) used as reference compound was prepared in ethanol. (Yang, F. et al. in J. Biol Chem 2005, 280, 5892-5901). […]
In particular, in this invention, the viability of CGC cell cultures was assessed with the 20-29 fragment of IAPP, in its monomeric and aggregated form or with the mixtures of protein:chaperonin at different molar ratios. Briefly, in all samples of CGC, half of the volume of medium is removed to add, independently, the quantities of tested protein or mixtures of peptide:chaperonin with different molar ratios (1:0.3 or 1:1). […]
In FIG. 12, the results of the assessment of cell viability was observed by MTT assay, which were analyzed by the one-way ANOVA statistical test, followed by a posteriori LSD test (LSD for its acronym in English Least Significant Difference).

For series [2] the following is noted: Tubis et al. 1960; cited from earlier work.

Turning to `COc1cc(/C=C/C(=O)CC(=O)/C=C/c2ccc(O)c(OC)c2)ccc1O` [curcumin], the “CGC viability with IAPP monomer plus reference compound versus monomer alone” value in series [1] (IAPP 20-29 monomer, 20 hours, p>0.05) is recorded as “no significant differences”. For the same compound, in series [1] (aggregated form of IAPP 20-29, 20 hours), the “CGC viability with aggregated IAPP 20-29 plus compound versus aggregated fragment alone” value is reported as “marked cytoprotective effect”. For `Nc1c(/N=N/c2ccc(-c3ccc(/N=N/c4cc(S(=O)(=O)O)c5ccccc5c4N)cc3)cc2)cc(S(=O)(=O)O)c2ccccc12` [CR, Congo Red], the “Fraction able to cross the blood brain barrier (BBB)” value in series [2] is 0.03%.
